Reference: ChEMBL document CHEMBL1201862, “PubChem BioAssay data set” (2004)
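Protocol summary: plate cells (96-well), add compound at 5 concentrations, incubate 48 h, interpolate endpoints linearly. Abbreviation: GI50, concentration required for 50% inhibition of growth.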 Activity calls are given as the source filed them. No stated cut-off is given here; in the data, active = GI50 up to about 1.1 µM and inactive = higher.

Columns and labels:
Experiment in all cases: growth of human tumour cells (NCI), 48 h
[1] = system: DU-145
[2] = system: SNB-19
[3] = system: NCI/ADR-RES
[4] = system: ACHN
[5] = system: OVCAR-4
[6] = system: BT-549
[7] = system: NCI-H23
[8] = system: COLO 205
[9] = system: Malme-3M
[10] = system: UO-31
[11] = system: MOLT-4
[12] = system: SK-MEL-5
[13] = system: RXF 393
[14] = system: 786-0
[15] = system: A498
[16] = system: MDA-N
[17] = system: EKVX
[18] = system: K562
[19] = system: TK-10
[20] = system: SK-OV-3

Measured: GI50

CC(=O)OCCc1cc2ccccc2oc1=O
inactive: [1] > 100 µM | [2] > 100 µM | [3] > 100 µM | [4] > 100 µM | [5] > 100 µM | [6] > 100 µM | [7] > 100 µM | [8] > 100 µM | [9] > 100 µM | [10] > 100 µM | [11] > 100 µM | [12] > 100 µM | [13] > 100 µM | [14] > 100 µM | [15] > 100 µM | [16] > 100 µM | [17] 86.7 µM | [18] > 100 µM

CC[N+](C)(CC)Cc1ccccc1[N+](=O)[O-]
inactive: [1] > 100 µM | [19] > 100 µM | [3] > 100 µM | [4] > 100 µM | [5] > 100 µM | [6] 36 µM | [7] > 100 µM | [20] > 100 µM | [8] 46 µM | [9] > 100 µM | [10] > 100 µM | [11] > 100 µM | [12] > 100 µM | [13] > 100 µM | [14] > 100 µM | [15] 41.2 µM | [16] > 100 µM | [17] 32.3 µM | [18] > 100 µM

CC(=O)Nc1nc2c(=O)c3ccccc3sc2s1
inactive: [1] > 100 µM | [19] 87.3 µM | [2] > 100 µM | [3] > 100 µM | [4] > 100 µM | [6] > 100 µM | [7] > 100 µM | [8] > 100 µM | [10] > 100 µM | [11] > 100 µM | [12] > 100 µM | [13] > 100 µM | [14] > 100 µM | [15] > 100 µM | [16] > 100 µM | [17] > 100 µM | [18] > 100 µM

CN(C)/C=N\c1nncc2[nH]nnc12
inactive: [1] > 100 µM | [19] > 100 µM | [2] > 100 µM | [3] > 100 µM | [4] > 100 µM | [6] > 100 µM | [7] > 100 µM | [8] > 100 µM | [10] > 100 µM | [11] 54.3 µM | [12] > 100 µM | [13] > 100 µM | [14] > 100 µM | [15] > 100 µM | [16] > 100 µM | [17] > 100 µM | [18] > 100 µM

CCOC(=O)[C@H](CO)NC1=C(Cl)C(=O)c2c(O)ccc(O)c2C1=O
inactive: [1] > 10 µM | [19] > 10 µM | [2] > 10 µM | [3] > 10 µM | [4] > 10 µM | [5] > 10 µM | [6] > 10 µM | [7] > 10 µM | [20] > 10 µM | [8] 3.87 µM | [9] > 10 µM | [11] > 10 µM | [12] > 10 µM | [13] > 10 µM | [14] > 10 µM | [16] > 10 µM | [17] > 10 µM | [18] > 10 µM

O=C(N/N=C/c1ccccc1O)c1ccccc1Nc1ccccc1C(=O)N/N=C/c1ccccc1O
inactive: [1] 2.25 µM | [19] 5.87 µM | [2] 3.41 µM | [6] 7.03 µM | [7] 1.84 µM | [20] 3.1 µM | [15] > 100 µM | [16] > 100 µM
active: [3] 1 µM | [4] 0.394 µM | [5] 0.375 µM | [8] 0.303 µM | [9] 0.29 µM | [10] 0.411 µM | [11] 0.102 µM | [12] 0.541 µM | [14] 0.214 µM | [17] 0.398 µM | [18] 1 µM

COc1ccc(NC(=S)NC(=O)c2ccc3c(c2)Sc2ccccc2O3)c([N+](=O)[O-])c1
inactive: [1] 26.9 µM | [19] 17.9 µM | [2] 21.9 µM | [3] 33.6 µM | [4] 21.4 µM | [5] 14.9 µM | [6] 37.1 µM | [7] 83.2 µM | [20] 29.9 µM | [8] > 100 µM | [9] 14.4 µM | [10] 25.6 µM | [11] 34.4 µM | [12] 20.6 µM | [13] 19.3 µM | [14] 17.9 µM | [15] 18.5 µM | [16] 44.5 µM | [18] 64.1 µM

Cc1cc2c(cc1-c1cc3c(cc1C)C(C(C)C)=C(O)C(=O)/C3=C\Nc1c(C)n(C)n(-c3ccccc3)c1=O)/C(=C/Nc1c(C)n(C)n(-c3ccccc3)c1=O)C(=O)C(O)=C2C(C)C
inactive: [1] > 100 µM | [2] > 100 µM | [3] > 100 µM | [4] 47.5 µM | [5] > 100 µM | [6] > 100 µM | [7] > 100 µM | [20] > 100 µM | [8] 82.6 µM | [9] > 100 µM | [10] > 100 µM | [11] 41.2 µM | [12] 49.9 µM | [13] 26.1 µM | [14] 62.1 µM | [15] > 100 µM | [16] > 100 µM | [17] 76.9 µM | [18] > 100 µM

Cc1c2c3cc(O)ccc3nc-2n(C)c2ccccc12
active: [3] 0.957 µM | [4] 0.479 µM | [10] 0.857 µM | [11] 0.399 µM | [12] 1.09 µM | [13] 1.09 µM | [14] 0.53 µM | [18] 0.818 µM
inactive: [1] 3.08 µM | [19] 2.98 µM | [2] 1.83 µM | [6] 1.92 µM | [7] 2.24 µM | [20] 1.46 µM | [9] 1.48 µM | [16] 2.07 µM | [17] 2.58 µM

CC(=O)OCC1OC(Nn2c(=O)[nH]c3ccccc3c2=O)C(OC(C)=O)C(OC(C)=O)C1OC(C)=O (stereo unspecified)
inactive: [1] > 100 µM | [2] > 100 µM | [3] > 100 µM | [4] > 100 µM | [6] > 100 µM | [7] > 100 µM | [20] > 100 µM | [8] > 100 µM | [9] > 100 µM | [10] 70.3 µM | [11] 97.7 µM | [12] > 100 µM | [13] > 100 µM | [14] > 100 µM | [15] > 100 µM | [16] > 100 µM | [17] > 100 µM | [18] > 100 µM

C[Si](C)(C)OC1c2[nH]c3ccccc3c2CN2C(=O)CCC12 (stereo unspecified)
inactive: [1] > 100 µM | [19] > 100 µM | [2] > 100 µM | [3] > 100 µM | [4] > 100 µM | [5] > 100 µM | [6] > 100 µM | [20] > 100 µM | [8] > 100 µM | [10] > 100 µM | [11] > 100 µM | [12] > 100 µM | [14] > 100 µM | [15] > 100 µM | [16] > 100 µM | [17] > 100 µM | [18] > 100 µM

CCc1cccc(C(C)(C)C)c1NC(=S)N/C=C(/C#N)C(N)=O
inactive: [1] > 100 µM | [2] > 100 µM | [3] > 100 µM | [4] > 100 µM | [5] > 100 µM | [6] 44.8 µM | [7] > 100 µM | [20] > 100 µM | [8] > 100 µM | [9] > 100 µM | [10] 31.3 µM | [11] > 100 µM | [12] > 100 µM | [13] > 100 µM | [14] > 100 µM | [15] > 100 µM | [16] > 100 µM | [17] > 100 µM | [18] > 100 µM

CN1CC[C@@]2(c3cccc(O)c3)CC(=O)/C(=C/c3ccc(Cl)c(Cl)c3)[C@H]1C2
active: [18] 0.433 µM
inactive: [1] 5.04 µM | [19] 14 µM | [2] 3.26 µM | [3] 2.38 µM | [4] 1.67 µM | [5] 4.59 µM | [6] 2.52 µM | [7] 3.4 µM | [9] 3.44 µM | [10] 2.07 µM | [11] 3.15 µM | [12] 2 µM | [13] 2.66 µM | [14] 1.71 µM | [15] 13.6 µM | [16] 1.87 µM | [17] 8.79 µM

CN(O)C(=O)Cc1ccc(OCc2cccc(Cl)c2)cc1
inactive: [1] > 100 µM | [19] > 100 µM | [2] > 100 µM | [3] > 100 µM | [4] > 100 µM | [5] > 100 µM | [6] > 100 µM | [7] > 100 µM | [20] > 100 µM | [8] > 100 µM | [10] > 100 µM | [11] > 100 µM | [12] > 100 µM | [13] > 100 µM | [14] > 100 µM | [15] 1.23 µM | [16] > 100 µM | [17] > 100 µM | [18] > 100 µM

CC(C)N1CC2CN(Cc3ccccc3)CC(C1)C2=O
inactive: [1] > 100 µM | [19] > 100 µM | [2] > 100 µM | [3] > 100 µM | [4] > 100 µM | [5] > 100 µM | [6] > 100 µM | [7] > 100 µM | [20] > 100 µM | [8] > 100 µM | [9] > 100 µM | [10] > 100 µM | [11] > 100 µM | [13] > 100 µM | [14] > 100 µM | [16] > 100 µM | [18] > 100 µM
